Assay results: patent US9593305B2, “Differentiation of pluripotent stem cells” (Janssen Biotech, Inc., priority 2008, dated 2017)

Tested on: H1 human embryonic stem cells
Assay: Compound 34 with growth factor combinations including GDF-8, no activin A (Example 7, Table 6)
Assay type: cell-based
Description: Clusters of H1 human embryonic stem cells were grown on reduced growth factor […]™ (Invitrogen; Cat #356231)-coated tissue culture plastic. Cells were passaged using collagenase (Invitrogen; Cat #17104-019) treatment and gentle scraping, washed to remove residual enzyme, and plated with even dispersal at a ratio of 1:1 (surface area) on reduced growth factor […]™-coated 96-well black plates (Packard ViewPlates; PerkinElmer; Cat #6005182) using volumes of 100 μl/well. Cells were allowed to attach as clusters and then recover log phase growth over a 1 to 3 day period, feeding daily with MEF conditioned medium supplemented with 8 ng/ml bFGF (R&D Systems; Cat #233-FB). Plates were maintained at 37° C., 5% CO2 in a humidified box throughout the duration of assay.
Stocks of growth factors purchased from R&D Systems were EGF (Cat #236-EG), FGF4 (Cat #235-F4), PDGF-A (Cat #221-AA), PDGF-D (Cat #1159-SB), PDGF-A/B (Cat #222-AB), VEGF (Cat #293-VE), and GDF-8 (Cat #788-G8). Muscimol was purchased from Tocris (Cat #0289). All growth factors were solubilized in PBS with 0.1% BSA (Sigma; Cat #A7888) and stored frozen at −80° C. Muscimol was solubilized in 100% DMSO (Sigma; Cat #D2650) and stored frozen at −80° C. Cyclic aniline-pyridinotriazine compounds were available as 5 mM stocks in 96-well plate format, solubilized in 100% DMSO and stored at −80° C. Compound 34 was further diluted to an intermediate concentration of 0.2 mM in 50 mM HEPES (Invitrogen; Cat #15630-080), 20% DMSO and stored at 4° C. All growth factors and inhibitors were prepared in a deep well, 96-well polypropylene plate, diluted to 5× intermediate stocks in DMEM:F12 base medium at the beginning of assay and stored at 4° C.
A secondary screening assay was conducted, testing in triplicate and feeding on alternate days over the four-day assay timeframe. Assays were initiated by aspirating culture medium from each well followed by three washes in PBS to remove residual growth factors and serum. […] All remaining growth factors were tested at a final assay concentration of 50 ng/ml (EGF, FGF4, PDGF-A, PDGF-A/B, VEGF) with the exception of GDF-8 tested at 25 ng/ml. Final assay concentration of muscimol was 20 μM. […]
On day 3, wells were aspirated and fed with 80 μl DMEM:F12 base medium supplemented with 2.5% FCS (HyClone) and 3.125 μM Compound 34 plus 20 μl 5× stock of growth factors or small molecules per well to yield a final concentration of 2% FCS and 2.5 μM Compound 34 (omitting Wnt3a) and as denoted on day one for all remaining growth factors or small molecules. Positive control wells (100 μl/well) contained the same base medium supplemented with 2% FCS and 100 ng/ml activin A, omitting Wnt3a. Negative control wells (100 μl/well) contained the same base medium with 2% FCS, omitting both activin A and Wnt3a.
At the conclusion of four-days of culture, assay plates were washed twice with PBS, fixed with 4% paraformaldehyde (Alexis Biochemical; Cat ALX-350-011) at room temperature for 20 minutes, then washed three times with PBS and permeabilized with 0.5% Triton X-100 (Sigma; Cat #T8760-2) for 20 minutes at room temperature. Cells were washed again three times with PBS and blocked with 4% chicken serum (Invitrogen; Cat #16110082) in PBS for 30 minutes at room temperature. Primary antibody (goat anti-human SOX17; R&D Systems; cat #AF1924) was diluted 1:100 in 4% chicken serum and added to each well for one hour at room temperature. Alexa Fluor 488 conjugated secondary antibody (chicken anti-goat IgG; Molecular Probes; Cat #AZ1467) was diluted 1:200 in PBS and added to each sample well after washing three times with PBS. To counterstain nuclei, 4 μg/ml Hoechst 33342 (Invitrogen; Cat #H3570) was added for ten minutes at room temperature. Plates were washed once with PBS and left in 100 μl/well PBS for imaging. […]

[1] = no AA (with Wnt3a), EGF + FGF4 + PDGF-A + VEGF + PDGF-D + Muscimol + GDF8
[2] = no AA (with Wnt3a), GDF8 + PDGF-D
[3] = no AA (with Wnt3a), GDF8 + PDGF-D + VEGF
[4] = no AA (with Wnt3a), GDF8 + PDGF-D + VEGF + Muscimol
[5] = no AA (with Wnt3a), GDF8 + VEGF + Muscimol
[6] = no AA (with Wnt3a), PDGF-D + Muscimol
[7] = no AA (with Wnt3a), PDGF-D + Muscimol + VEGF
[8] = no AA (with Wnt3a), PDGF-D + VEGF
[9] = no AA (with Wnt3a), VEGF + Muscimol
[10] = no AA, no Wnt3a, EGF + FGF4 + PDGF-A + VEGF + PDGF-D + Muscimol + GDF8

O=C1CCN2CCN(CC2)Cc2cc(Cl)cc(c2)Nc2ncnc(n2)-c2cncc(c2)CCCN1 [Compound 34, 5-Chloro-1,8,10,12,16,22,26,32-octaazapentacyclo[24.2.2.1˜3.7˜0.1˜9,13˜0.1˜14.18˜]tritriaconta-3(33), 4,6,9(32), 10,12,14(31), 15,17-nonaen-23-one]
SOX17 expression (% of control) (2.5 μM Compound 34 with GDF-8 (25 ng/ml) and Wnt3a, no activin A): 88 % of control
Cell Number, % of positive control (no AA (with Wnt3a), EGF): 85.53%
Cell Number, Average Total Cell Number (no AA (with Wnt3a), EGF): 6145
Sox17 Expression, % of positive control (no AA (with Wnt3a), EGF): 19.18%
Sox17 Expression, Average Total Intensity (no AA (with Wnt3a), EGF): 1.5E+07
Cell Number, % of positive control [1]: 83.90%
Cell Number, Average Total Cell Number [1]: 6028
Sox17 Expression, % of positive control [1]: 87.44%
Sox17 Expression, Average Total Intensity [1]: 7.0E+07
Cell Number, % of positive control (no AA (with Wnt3a), FGF4): 74.09%
Cell Number, Average Total Cell Number (no AA (with Wnt3a), FGF4): 5323
Sox17 Expression, % of positive control (no AA (with Wnt3a), FGF4): 33.75%
Sox17 Expression, Average Total Intensity (no AA (with Wnt3a), FGF4): 2.7E+07
Cell Number, % of positive control (no AA (with Wnt3a), GDF8): 88.44%
Cell Number, Average Total Cell Number (no AA (with Wnt3a), GDF8): 6354
Sox17 Expression, % of positive control (no AA (with Wnt3a), GDF8): 88.59%
Sox17 Expression, Average Total Intensity (no AA (with Wnt3a), GDF8): 7.1E+07
Cell Number, % of positive control [2]: 95.88%
Cell Number, Average Total Cell Number [2]: 6889
Sox17 Expression, % of positive control [2]: 72.59%
Sox17 Expression, Average Total Intensity [2]: 5.8E+07
Cell Number, % of positive control [3]: 77.74%
Cell Number, Average Total Cell Number [3]: 5585
Sox17 Expression, % of positive control [3]: 81.75%
Sox17 Expression, Average Total Intensity [3]: 6.6E+07
Cell Number, % of positive control [4]: 131.60%
Cell Number, Average Total Cell Number [4]: 9455
Sox17 Expression, % of positive control [4]: 119.24%
Sox17 Expression, Average Total Intensity [4]: 9.6E+07
Cell Number, % of positive control [5]: 84.67%
Cell Number, Average Total Cell Number [5]: 6083
Sox17 Expression, % of positive control [5]: 69.62%
Sox17 Expression, Average Total Intensity [5]: 5.6E+07
Cell Number, % of positive control (no AA (with Wnt3a), Muscimol): 101.41%
Cell Number, Average Total Cell Number (no AA (with Wnt3a), Muscimol): 7286
Sox17 Expression, % of positive control (no AA (with Wnt3a), Muscimol): 38.38%
Sox17 Expression, Average Total Intensity (no AA (with Wnt3a), Muscimol): 3.1E+07
Cell Number, % of positive control (no AA (with Wnt3a), PDGF-A): 58.11%
Cell Number, Average Total Cell Number (no AA (with Wnt3a), PDGF-A): 4175
Sox17 Expression, % of positive control (no AA (with Wnt3a), PDGF-A): 13.43%
Sox17 Expression, Average Total Intensity (no AA (with Wnt3a), PDGF-A): 1.1E+07
Cell Number, % of positive control (no AA (with Wnt3a), PDGF-D): 69.84%
Cell Number, Average Total Cell Number (no AA (with Wnt3a), PDGF-D): 5017
Sox17 Expression, % of positive control (no AA (with Wnt3a), PDGF-D): 18.76%
Sox17 Expression, Average Total Intensity (no AA (with Wnt3a), PDGF-D): 1.5E+07
Cell Number, % of positive control [6]: 48.57%
Cell Number, Average Total Cell Number [6]: 3490
Sox17 Expression, % of positive control [6]: 8.02%
Sox17 Expression, Average Total Intensity [6]: 6.5E+06
Cell Number, % of positive control [7]: 29.68%
Cell Number, Average Total Cell Number [7]: 2133
Sox17 Expression, % of positive control [7]: 3.32%
Sox17 Expression, Average Total Intensity [7]: 2.7E+06
Cell Number, % of positive control [8]: 70.01%
Cell Number, Average Total Cell Number [8]: 5030
Sox17 Expression, % of positive control [8]: 14.58%
Sox17 Expression, Average Total Intensity [8]: 1.2E+07
Cell Number, % of positive control (no AA (with Wnt3a), VEGF): 65.60%
Cell Number, Average Total Cell Number (no AA (with Wnt3a), VEGF): 4713
Sox17 Expression, % of positive control (no AA (with Wnt3a), VEGF): 12.49%
Sox17 Expression, Average Total Intensity (no AA (with Wnt3a), VEGF): 1.0E+07
Cell Number, % of positive control [9]: 10.81%
Cell Number, Average Total Cell Number [9]: 776
Sox17 Expression, % of positive control [9]: 1.56%
Sox17 Expression, Average Total Intensity [9]: 1.3E+06
Cell Number, % of positive control (no AA (with Wnt3a), none): 64.18%
Cell Number, Average Total Cell Number (no AA (with Wnt3a), none): 4611
Sox17 Expression, % of positive control (no AA (with Wnt3a), none): 17.21%
Sox17 Expression, Average Total Intensity (no AA (with Wnt3a), none): 1.4E+07
Cell Number, % of positive control [10]: 66.21%
Cell Number, Average Total Cell Number [10]: 4757
Sox17 Expression, % of positive control [10]: 48.77%
Sox17 Expression, Average Total Intensity [10]: 3.9E+07

GDF-8: growth factor GDF-8, also known as myostatin, member of the TGF-β family
SOX17 expression (GDF-8 25 ng/ml in any combination with Compound 34): substantial increase in SOX17 expression
